# Test results as given in patent US20230085307A1, “PYRIDAZINONE COMPOUND AND HERBICIDE” (NISSAN CHEMICAL CORPORATION, priority 2019, published 2023).
# What was measured:
# barnyard grass [1] = assay: Test Example 3: herbicidal effect by foliage application, Wagner pot (Table 18, symbol H); type: in vivo, barnyard grass (Echinochloa crus-galli); conditions: 320 g/ha
# Method in brief: (§1)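 Plants were sown in alluvial soil held under 0.1–0.5 cm standing water and grown 14 days in a greenhouse at 25–30 °C. An emulsifiable formulation, water-diluted to the set dose, was then sprayed onto the foliage, and effects were scored three weeks later using previously defined criteria.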
# Chinese sprangletop = assay: Test Example 3: herbicidal effect by foliage application, Wagner pot (Table 18, symbol D); type: in vivo, chinese sprangletop (Leptochloa chinensis); conditions: 320 g/ha
# Method in brief: as §1
# rice flat sedge = assay: Test Example 3: herbicidal effect by foliage application, Wagner pot (Table 18, symbol E); type: in vivo, rice flat sedge (Cyperus iria); conditions: 320 g/ha
# Method in brief: as §1
# southern crabgrass = assay: Test Example 5: herbicidal effect by foliage application, plastic box (Table 20, symbol F); type: in vivo, southern crabgrass (Digitaria ciliaris); conditions: foliage application after 14-day growth, evaluated three weeks after application; for herbicidal effect on F: southern crabgrass (evaluation grade 0-5): 320 g/ha
# Method in brief: (§2)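 Plants were sown into sterilized diluvial soil under about 1.5 cm cover and kept in a greenhouse at 25° C. to 30° C. Fourteen days on, foliage received an even spray of the diluted emulsion. Herbicidal or crop effect was judged three weeks afterwards.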
# green foxtail = assay: Test Example 5: herbicidal effect by foliage application, plastic box (Table 20, symbol G); type: in vivo, green foxtail (Setaria viridis); conditions: foliage application after 14-day growth, evaluated three weeks after application; for herbicidal effect on G: green foxtail (evaluation grade 0-5): 320 g/ha
# Method in brief: as §2
# barnyard grass [2] = assay: Test Example 5: herbicidal effect by foliage application, plastic box (Table 20, symbol H); type: in vivo, barnyard grass (Echinochloa crus-galli); conditions: foliage application after 14-day growth, evaluated three weeks after application; for herbicidal effect on H: barnyard grass (evaluation grade 0-5): 320 g/ha
# Method in brief: as §2
# wild oat = assay: Test Example 5: herbicidal effect by foliage application, plastic box (Table 20, symbol I); type: in vivo, wild oat (Avena fatua); conditions: foliage application after 14-day growth, evaluated three weeks after application; for herbicidal effect on I: wild oat (evaluation grade 0-5): 320 g/ha
# Method in brief: as §2
# blackgrass = assay: Test Example 5: herbicidal effect by foliage application, plastic box (Table 20, symbol J); type: in vivo, blackgrass (Alopecurus myosuroides); conditions: foliage application after 14-day growth, evaluated three weeks after application; for herbicidal effect on J: blackgrass (evaluation grade 0-5): 320 g/ha
# Method in brief: as §2
# Italian ryegrass = assay: Test Example 5: herbicidal effect by foliage application, plastic box (Table 20, symbol K); type: in vivo, Italian ryegrass (Lolium multiflorum); conditions: foliage application after 14-day growth, evaluated three weeks after application; for herbicidal effect on K: Italian ryegrass (evaluation grade 0-5): 320 g/ha
# Method in brief: as §2
# windgrass = assay: Test Example 5: herbicidal effect by foliage application, plastic box (Table 20, symbol L); type: in vivo, windgrass (Apera spica-venti); conditions: foliage application after 14-day growth, evaluated three weeks after application; for herbicidal effect on L: windgrass (evaluation grade 0-5): 320 g/ha
# Method in brief: as §2
# velvetleaf = assay: Test Example 5: herbicidal effect by foliage application, plastic box (Table 20, symbol M); type: in vivo, velvetleaf (Abutilon theophrasti); conditions: foliage application after 14-day growth, evaluated three weeks after application; for herbicidal effect on M: velvetleaf (evaluation grade 0-5): 320 g/ha
# Method in brief: as §2
# redroot pigweed = assay: Test Example 5: herbicidal effect by foliage application, plastic box (Table 20, symbol N); type: in vivo, redroot pigweed (Amaranthus retroflexus); conditions: foliage application after 14-day growth, evaluated three weeks after application; for herbicidal effect on N: redroot pigweed (evaluation grade 0-5): 320 g/ha
# Method in brief: as §2
# lambsquarters = assay: Test Example 5: herbicidal effect by foliage application, plastic box (Table 20, symbol O); type: in vivo, lambsquarters (Chenopodium album); conditions: foliage application after 14-day growth, evaluated three weeks after application; for herbicidal effect on O: lambsquarters (evaluation grade 0-5): 320 g/ha
# Method in brief: as §2
# chickweed = assay: Test Example 5: herbicidal effect by foliage application, plastic box (Table 20, symbol P); type: in vivo, common chickweed (Stellaria media); conditions: foliage application after 14-day growth, evaluated three weeks after application; for herbicidal effect on P: chickweed (evaluation grade 0-5): 320 g/ha
# Method in brief: as §2
# persian speedwell = assay: Test Example 5: herbicidal effect by foliage application, plastic box (Table 20, symbol R); type: in vivo, Persian speedwell (Veronica persica); conditions: foliage application after 14-day growth, evaluated three weeks after application; for herbicidal effect on R: persian speedwell (evaluation grade 0-5): 320 g/ha
# Method in brief: as §2
# [3] = amount of applied herbicide 320 g/ha
SMILES,herbicidal effect on barnyard grass (H) (barnyard grass [1]),herbicidal effect on Chinese sprangletop (D) (Chinese sprangletop),herbicidal effect on rice flat sedge (E) (rice flat sedge),herbicidal effect on F: southern crabgrass (evaluation grade 0-5) (southern crabgrass),herbicidal effect on G: green foxtail (evaluation grade 0-5) (green foxtail),herbicidal effect on H: barnyard grass (evaluation grade 0-5) (barnyard grass [2]),herbicidal effect on I: wild oat (evaluation grade 0-5) (wild oat),herbicidal effect on J: blackgrass (evaluation grade 0-5) (blackgrass),herbicidal effect on K: Italian ryegrass (evaluation grade 0-5) (Italian ryegrass),herbicidal effect on L: windgrass (evaluation grade 0-5) (windgrass),herbicidal effect on M: velvetleaf (evaluation grade 0-5) (velvetleaf),herbicidal effect on N: redroot pigweed (evaluation grade 0-5) (redroot pigweed),herbicidal effect on O: lambsquarters (evaluation grade 0-5) (lambsquarters),herbicidal effect on P: chickweed (evaluation grade 0-5) (chickweed),herbicidal effect on R: persian speedwell (evaluation grade 0-5) (persian speedwell),also measured
Cc1nn(C)c(=O)c(-c2c(-c3ccc(C(F)(F)F)cc3)sc3c(Cl)cccc23)c1O [4-029],3 (Herbicidal rate of 40% or more and less than 70%),0 (Herbicidal rate of 5% or less (almost no effect)),0 (Herbicidal rate of 5% or less (almost no effect)),0 (Herbicidal rate of 5% or less (almost no effect)),0 (Herbicidal rate of 5% or less (almost no effect)),0 (Herbicidal rate of 5% or less (almost no effect)),0 (Herbicidal rate of 5% or less (almost no effect)),0 (Herbicidal rate of 5% or less (almost no effect)),0 (Herbicidal rate of 5% or less (almost no effect)),4 (Herbicidal rate of 70% or more and less than 90%),0 (Herbicidal rate of 5% or less (almost no effect)),0 (Herbicidal rate of 5% or less (almost no effect)),3 (Herbicidal rate of 40% or more and less than 70%),5 (Herbicidal rate of 90% or more (almost completely withered)),0 (Herbicidal rate of 5% or less (almost no effect)),–
CCCC(=O)Oc1c(C)nn(C)c(=O)c1-c1c(-c2ccccc2CC)sc2c(Cl)cccc12 [4-063],5 (Herbicidal rate of 90% or more (almost completely withered)),3 (Herbicidal rate of 40% or more and less than 70%),4 (Herbicidal rate of 70% or more and less than 90%),0 (Herbicidal rate of 5% or less (almost no effect)),0 (Herbicidal rate of 5% or less (almost no effect)),0 (Herbicidal rate of 5% or less (almost no effect)),0 (Herbicidal rate of 5% or less (almost no effect)),0 (Herbicidal rate of 5% or less (almost no effect)),0 (Herbicidal rate of 5% or less (almost no effect)),0 (Herbicidal rate of 5% or less (almost no effect)),0 (Herbicidal rate of 5% or less (almost no effect)),3 (Herbicidal rate of 40% or more and less than 70%),1 (Herbicidal rate of 5% or more and less than 20%),0 (Herbicidal rate of 5% or less (almost no effect)),0 (Herbicidal rate of 5% or less (almost no effect)),–
CCCC(=O)Oc1c(C)nn(C)c(=O)c1-c1c(-c2ccccc2SCC)sc2c(Cl)cccc12 [4-091],5 (Herbicidal rate of 90% or more (almost completely withered)),5 (Herbicidal rate of 90% or more (almost completely withered)),3 (Herbicidal rate of 40% or more and less than 70%),–,–,–,–,–,–,–,–,–,–,–,–,"Herbicidal effect by foliage application, F: southern crabgrass (southern crabgrass; [3]): 4 (Herbicidal rate of 70% or more and less than 90%); Herbicidal effect by foliage application, G: green foxtail (green foxtail; [3]): 3 (Herbicidal rate of 40% or more and less than 70%); Herbicidal effect by foliage application, H: barnyard grass (barnyard grass [2]; [3]): 3 (Herbicidal rate of 40% or more and less than 70%); Herbicidal effect by foliage application, I: wild oat (wild oat; [3]): 0 (Herbicidal rate of 5% or less (almost no effect)); Herbicidal effect by foliage application, J: blackgrass (blackgrass; [3]): 0 (Herbicidal rate of 5% or less (almost no effect)); Herbicidal effect by foliage application, K: Italian ryegrass (Italian ryegrass; [3]): 0 (Herbicidal rate of 5% or less (almost no effect)); Herbicidal effect by foliage application, L: windgrass (windgrass; [3]): 0 (Herbicidal rate of 5% or less (almost no effect)); Herbicidal effect by foliage application, M: velvetleaf (velvetleaf; [3]): 2 (Herbicidal rate of 20% or more and less than 40%); Herbicidal effect by foliage application, N: redroot pigweed (redroot pigweed; [3]): 3 (Herbicidal rate of 40% or more and less than 70%); Herbicidal effect by foliage application, O: lambsquarters (lambsquarters; [3]): 1 (Herbicidal rate of 5% or more and less than 20%); Herbicidal effect by foliage application, P: chickweed (chickweed; [3]): 0 (Herbicidal rate of 5% or less (almost no effect)); Herbicidal effect by foliage application, R: persian speedwell (persian speedwell; [3]): 4 (Herbicidal rate of 70% or more and less than 90%)"
